Laboratory results: US12150971B2, “Method and composition for preventing and treating Covid-19 and long Covid” (priority 2021, dated 2024)

System: xCT
Assay: Western blot of xCT in THP-1-derived macrophages
Type: cell-based, human
Details: 5 mM NAC 1 h pretreatment, then 100 μg/ml Virofree 6 or 24 h
Procedure: The cells were exposed to different treatments for the indicated time, the cells were lysed on ice with lysis buffer. The cell lysate was cleared by centrifugation at 12,000 g for 10 min. The lysate was resolved by sodium dodecyl sulfate-polyacrylamide gel electrophoresis, and the proteins were transferred to a polyvinylidene fluoride membrane. After blocking with 5% non-fat dry milk in Tris-buffered saline, the membrane was incubated overnight with the desired primary antibody (FPN (Novus Biologicals, NBP1-21502, 1:1000), FTH-1 (Cell signaling, 4393S, 1:1000), GPX4 (Abcam, ab125066, 1:1000), TFRC (Cell signaling, 13208s, 1:1000), xCT (Cell signaling, 17681s, 1:1000), GAPDH (GeneTex, GTX100118, 1:10,000), α-SMA (Abcam, ab5694, 1:1000), Fibronectin (Santa Cruz, sc-9068, 1:1000), N-cadherin (BD, 610920, 1:1000), β-actin (GeneTex, GTX109639, 1:10000)). Subsequently, the membrane was incubated with an appropriate secondary antibody. Immunoreactive bands were visualized using the enhanced chemiluminescence (ECL) method and captured by a Luminescence Imaging system (LAS 4000™, Fuji Photo Film Co. Ltd).

## CC(=O)N[C@@H](CS)C(=O)O [N-acetyl cysteine]
  xCT expression mediated by Virofree after NAC pretreatment: significantly decrease
